Test results from patent publication US9221796B2, “Selective NR2B antagonists” (BRISTOL-MYERS SQUIBB COMPANY, priority 2014, dated 2015).

Each molecule was assayed against NR2B-subtype NMDA receptors (Rattus norvegicus (Rat), UniProt P35439+Q00960) (assay: Radioligand binding assay (3H Ro 25-6981 competition, forebrain membranes)). Settings: 3H Ro 25-6981 (4 nM), listed as 44, E-1, read-out: NR2B Binding Ki.
NR2B-subtype NMDA receptors, sequence (Q00960 27-1482, other chains not shown): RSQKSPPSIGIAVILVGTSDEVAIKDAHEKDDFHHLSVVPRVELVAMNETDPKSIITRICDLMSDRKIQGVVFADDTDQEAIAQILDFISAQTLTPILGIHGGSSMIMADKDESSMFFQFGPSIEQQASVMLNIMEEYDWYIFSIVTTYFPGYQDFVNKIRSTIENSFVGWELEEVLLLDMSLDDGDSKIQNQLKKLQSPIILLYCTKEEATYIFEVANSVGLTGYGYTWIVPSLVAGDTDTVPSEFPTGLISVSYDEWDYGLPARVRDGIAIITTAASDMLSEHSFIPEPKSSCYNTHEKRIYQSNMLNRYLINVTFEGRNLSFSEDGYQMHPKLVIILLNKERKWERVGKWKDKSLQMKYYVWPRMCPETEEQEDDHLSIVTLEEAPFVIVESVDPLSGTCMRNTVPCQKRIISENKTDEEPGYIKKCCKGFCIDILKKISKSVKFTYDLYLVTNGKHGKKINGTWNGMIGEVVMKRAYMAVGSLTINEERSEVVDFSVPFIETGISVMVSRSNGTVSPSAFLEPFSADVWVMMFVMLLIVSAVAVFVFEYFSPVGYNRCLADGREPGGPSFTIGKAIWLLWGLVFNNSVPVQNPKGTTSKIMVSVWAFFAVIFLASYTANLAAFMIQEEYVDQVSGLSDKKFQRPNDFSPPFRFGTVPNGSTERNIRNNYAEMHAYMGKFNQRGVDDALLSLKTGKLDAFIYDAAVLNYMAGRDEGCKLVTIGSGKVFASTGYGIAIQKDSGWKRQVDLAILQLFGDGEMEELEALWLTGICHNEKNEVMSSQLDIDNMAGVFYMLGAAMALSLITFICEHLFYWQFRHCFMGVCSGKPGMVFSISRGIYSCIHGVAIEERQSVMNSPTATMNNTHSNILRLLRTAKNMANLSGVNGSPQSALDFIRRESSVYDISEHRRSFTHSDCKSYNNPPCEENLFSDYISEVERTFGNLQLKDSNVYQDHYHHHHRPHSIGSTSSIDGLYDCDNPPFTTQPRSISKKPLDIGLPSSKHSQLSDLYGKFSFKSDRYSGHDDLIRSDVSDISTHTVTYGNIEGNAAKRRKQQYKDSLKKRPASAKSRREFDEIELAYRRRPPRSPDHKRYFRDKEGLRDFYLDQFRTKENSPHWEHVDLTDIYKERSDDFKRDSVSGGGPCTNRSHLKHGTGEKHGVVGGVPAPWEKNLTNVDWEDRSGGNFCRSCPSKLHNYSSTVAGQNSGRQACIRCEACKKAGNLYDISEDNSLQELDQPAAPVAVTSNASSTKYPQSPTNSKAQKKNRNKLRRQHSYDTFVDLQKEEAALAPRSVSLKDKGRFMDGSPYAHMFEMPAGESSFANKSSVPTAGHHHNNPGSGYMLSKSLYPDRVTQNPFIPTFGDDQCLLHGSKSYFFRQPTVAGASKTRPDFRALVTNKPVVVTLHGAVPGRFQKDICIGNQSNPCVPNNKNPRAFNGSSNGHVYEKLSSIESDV
Protocol: Radioligand Binding Assay. […] Buchy D; Klingelschmidt A; Messer J; Bleuel Z; Kemp J A; Richards J G. […] Thawed brains were homogenized using a Dounce homogenizer and centrifuged at 48000×g for 20 min. The pellet was resuspended in cold buffer and homogenized again using a Dounce homogenizer. […] After incubation for 1 hr at room temperature, the membrane bound radioligand was harvested on to GF/B filter plates (treated with 0.5% PEI for 1 hr at room temperature). The filter plates were dried at 50° C. for 20 mins, incubated with microscint 20 for 10 minutes and finally, the counts were read on TopCount (Perkin Elmer). […] CPM values were converted to % inhibition and the concentration response curves were plotted using custom made software. Each experiment was repeated at least twice to obtain the final binding Ki values for experimental compounds.
With O=C1C(N2CCC(c3ccc(O)cc3)C(O)C2)CCN1Cc1ccc(F)cc1 (single isomer, unassigned) [Example 44, E-1, 1-(4-Fluorobenzyl)-3-(cis-3-hydroxy-4-(4-hydroxyphenyl)piperidin-1-yl)pyrrolidin-2-one] the Ki was 650 nM.

Same assay, conditions: 3H Ro 25-6981 (4 nM), read-out: NR2B Binding Ki
For O=C1[C@@H](N2CCC(c3ccc(O)cc3)C(F)(F)C2)CCN1Cc1ccc(Cl)cc1 (stereo partly drawn) [Example 106, P-1, (3S)-1-(4-Chlorobenzyl)-3-(3,3-difluoro-4-(4-hydroxyphenyl)piperidin-1-yl)pyrrolidin-2-one], the Ki was 990 nM. With C[C@@H](c1ccccc1)N1CCC(N2CCC(c3ccc(O)cc3)CC2)C1=O (stereo partly drawn) [Example 32, 3-(4-(4-Hydroxyphenyl)piperidin-1-yl)-1-((S)-1-phenylethyl)pyrrolidin-2-one] the Ki was 100 nM. For O=C1C(N2CCC(c3ccc(O)cc3)C(F)(F)C2)CCN1Cc1ccc(OC(F)F)cc1 (stereo not shown) [Example 94, 3-(3,3-Difluoro-4-(4-hydroxyphenyl)piperidin-1-yl)-1-(4-(difluoromethoxy)benzyl)-pyrrolidin-2-one], the Ki was 390 nM. Work on O=C1[C@@H](N2CCC(c3ccc(O)cc3)C(F)(F)C2)CCN1Cc1ccc(C(F)(F)F)cc1 (single isomer, unassigned) [Example 99, P-1] yielded a Ki of 380 nM. Cc1ccc(N2CC[C@H](N3CC[C@H](c4ccc(O)cc4)[C@@H](F)C3)C2=O)cc1F [Example 49, P-1, (S)-3-((3R,4R)-3-fluoro-4-(4-hydroxyphenyl)piperidin-1-yl)-1-(3-fluoro-4-methylphenyl)pyrrolidin-2-one] was tested, and the Ki was 420 nM. With O=C1C(N2CC[C@H](c3ccc(O)cc3)[C@@H](F)C2)CCN1Cc1ccc(F)c(F)c1 (stereo partly drawn) [Example 85, 1-(3,4-Difluorobenzyl)-3-((3R,4R)-3-fluoro-4-(4-hydroxyphenyl)-piperidin-1-yl)pyrrolidin-2-one] the Ki was 23 nM. Molecule O=C1[C@@H](N2CC[C@H](c3ccc(O)cc3)[C@@H](F)C2)CCN1Cc1ccc(F)cc1 [Example 48, P-2] has a Ki of 1700 nM. With Cc1ccc(CN2CC[C@@H](N3CC[C@@H](c4ccc(O)c(F)c4)[C@H](F)C3)C2=O)cc1F [Example 45, P-2, (R)-3-((3S,4S)-3-fluoro-4-(3-fluoro-4-hydroxyphenyl)piperidin-1-yl)-1-(3-fluoro-4-methylbenzyl)pyrrolidin-2-one] the Ki was 3.1 nM. Cc1ccc(CN2CCC(N3CCC(c4ccc(O)cc4)CC3)C2=O)cc1C (stereo not shown) [Example 26, 1-(3,4-Dimethylbenzyl)-3-(4-(4-hydroxyphenyl)piperidin-1-yl)pyrrolidin-2-one] showed a Ki of 31 nM. With O=C1C(N2CCC(c3ccc(O)cc3)CC2)CCCN1Cc1ccccc1 (single isomer, unassigned) [Example 41a, 1′-Benzyl-4-(4-hydroxyphenyl)-[1,3′-bipiperidin]-2′-one] the Ki was 990 nM. In the case of O=C1C(N2CCC(c3ccc(O)cc3)C(F)(F)C2)CCN1Cc1ccc(OC(F)F)cc1 (stereo not shown) [Example 105, 3-(3,3-Difluoro-4-(4-hydroxyphenyl)piperidin-1-yl)-1-(4-(difluoromethoxy)benzyl)-pyrrolidin-2-one], the Ki is reported as 180 nM. In the case of O=C1C(N2CCC(c3ccc(O)cc3)C(O)C2)CCN1Cc1ccc(F)cc1 (stereo not shown) [Example 8, 1-(4-Fluorobenzyl)-3-(3-hydroxy-4-(4-hydroxyphenyl)piperidin-1-yl)pyrrolidin-2-one], the Ki is reported as 420 nM. O=C1[C@H](N2CC[C@@H](c3ccc(O)cc3)[C@H](F)C2)CCN1c1ccc(OC(F)F)c(Cl)c1 [Example 63, (R)-1-(3-Chloro-4-(difluoromethoxy)phenyl)-3-((3S,4S)-3-fluoro-4-(4-hydroxyphenyl)-piperidin-1-yl)pyrrolidin-2-one] gave a Ki of 10 nM. C[C@@H](c1ccc(F)cc1)N1CC[C@@H](N2CC[C@@H](c3ccc(O)cc3)[C@H](F)C2)C1=O [Example 50, P-4, (R)-3-((3S,4S)-3-fluoro-4-(4-hydroxyphenyl)piperidin-1-yl)-1-((S)-1-(4-fluorophenyl)-ethyl)pyrrolidin-2-one] was tested, and the Ki was 1300 nM. O=C1C(N2CC[C@H](c3ccc(O)cc3)[C@@H](F)C2)CCN1Cc1ccc(F)c(Cl)c1 (stereo partly drawn) [Example 89, 1-(3-Chloro-4-fluorobenzyl)-3-((3R,4R)-3-fluoro-4-(4-hydroxyphenyl)piperidin-1-yl)pyrrolidin-2-one] was tested, and the Ki was 200 nM. O=C1C(N2CCC(c3ccc(O)cc3)C(F)(F)C2)CCN1Cc1ccc(Cl)c(Cl)c1 (stereo not shown) [Example 109, 1-(3,4-Dichlorobenzyl)-3-(3,3-difluoro-4-(4-hydroxyphenyl)piperidin-1-yl)pyrrolidin-2-one] was tested, and the Ki was 290 nM. Work on O=C1[C@@H](N2CC[C@@H](c3ccc(O)cc3)[C@H](F)C2)CCN1Cc1ccccc1 [Example 57, (S)-1-Benzyl-3-((3S,4S)-3-fluoro-4-(4-hydroxyphenyl)piperidin-1-yl)pyrrolidin-2-one] yielded a Ki of 490 nM. C[C@@H](c1ccc(F)cc1)N1CCC(N2CCC(c3ccc(O)cc3)C(F)(F)C2)C1=O (single isomer, unassigned) [Example 56, P-1] gave a Ki of no less than 5000 nM. Molecule O=C1[C@H](N2CCC(c3ccc(O)cc3)C(F)(F)C2)CCN1Cc1ccc(Cl)cc1 (stereo partly drawn) [Example 95, P-2, (3R)-1-(4-Chlorobenzyl)-3-(3,3-difluoro-4-(4-hydroxyphenyl)piperidin-1-yl)pyrrolidin-2-one] has a Ki of 12 nM. With Cc1ccc(CN2CCCC(N3CCC(c4ccc(O)cc4)CC3)C2=O)cc1F (stereo not shown) [Example 39, 1′-(3-Fluoro-4-methylbenzyl)-4-(4-hydroxyphenyl)-[1,3′-bipiperidin]-2′-one] the Ki was 300 nM. For O=C1[C@H](N2CCC(c3ccc(O)cc3)CC2)CCN1Cc1ccc(Cl)cc1 [Example 18b, (R)-1-(4-Chlorobenzyl)-3-(4-(4-hydroxyphenyl)piperidin-1-yl)pyrrolidin-2-one], the Ki was 1.5 nM. Molecule O=C1C(N2CC[C@@H](c3ccc(O)cc3)[C@H](F)C2)CCN1Cc1ccc(Cl)c(Cl)c1 (stereo partly drawn) [Example 70, 1-(3,4-Dichlorobenzyl)-3-((3S,4S)-3-fluoro-4-(4-hydroxyphenyl)piperidin-1-yl)pyrrolidin-2-one] has a Ki of 180 nM. In the case of O=C1C(N2CCCC(c3ccc(O)cc3)C2)CCN1Cc1ccc(F)cc1 (stereo not shown) [Example 4, 1-(4-Fluorobenzyl)-3-(3-(4-hydroxyphenyl)piperidin-1-yl)pyrrolidin-2-one], the Ki is reported as no less than 5000 nM. For Cc1ccc(CN2CC[C@H](N3CC(c4ccc(O)cc4)C3)C2=O)cc1F [Example 21b, (S)-1-(3-Fluoro-4-methylbenzyl)-3-(3-(4-hydroxyphenyl)azetidin-1-yl)pyrrolidin-2-one], the Ki was 410 nM. Cc1ccc(CN2CCC(N3CC(c4ccc(O)cc4)C3)C2=O)cc1 (stereo not shown) [Example 27, 3-(3-(4-Hydroxyphenyl)azetidin-1-yl)-1-(4-methylbenzyl)pyrrolidin-2-one] was tested, and the Ki was 20 nM. O=C1C(N2CCC(c3ccc(O)cc3)CC2)CCN1C1CCc2ccccc21 (stereo not shown) [Example 34, 1-(2,3-Dihydro-1H-inden-1-yl)-3-(4-(4-hydroxyphenyl)piperidin-1-yl)pyrrolidin-2-one] was tested, and the Ki was 670 nM. For O=C1C(N2CCCCC(c3ccc(O)cc3)C2)CCN1Cc1ccc(F)cc1 (stereo not shown) [Example 31, 1-(4-Fluorobenzyl)-3-(3-(4-hydroxyphenyl)azepan-1-yl)pyrrolidin-2-one], the Ki was 800 nM. O=C1[C@H](N2CC[C@@H](c3ccc(O)cc3)[C@H](F)C2)CCN1Cc1ccc(C(F)F)cc1 [Example 114, P-1, (R)-1-(4-(difluoromethyl)benzyl)-3-((3S,4S)-3-fluoro-4-(4-hydroxyphenyl)piperidin-1-yl)pyrrolidin-2-one] was tested, and the Ki was 3.5 nM. O=C1[C@@H](N2CC[C@H](c3ccc(O)cc3)[C@@H](F)C2)CCN1Cc1ccccc1 [Example 74, (S)-1-Benzyl-3-((3R,4R)-3-fluoro-4-(4-hydroxyphenyl)piperidin-1-yl)pyrrolidin-2-one] gave a Ki of 680 nM. With O=C1[C@H](N2CC[C@@H](c3ccc(O)cc3)[C@H](F)C2)CCN1Cc1ccc(Cl)cc1 [Example 65, (R)-1-(4-Chlorobenzyl)-3-((3S,4S)-3-fluoro-4-(4-hydroxyphenyl)piperidin-1-yl)pyrrolidin-2-one] the Ki was 3.6 nM. In the case of O=C1C(N2CCC(c3ccc(O)cc3)CC2)CCN1Cc1ccc(Cl)cc1 (racemic) [Example 17, 1-(4-Chlorobenzyl)-3-(4-(4-hydroxyphenyl)piperidin-1-yl)pyrrolidin-2-one], the Ki is reported as 1.6 nM. Molecule Cc1ccccc1CN1CCC(N2CCC(c3ccc(O)cc3)C(F)(F)C2)C1=O (stereo not shown) [Example 103, 3-(3,3-Difluoro-4-(4-hydroxyphenyl)piperidin-1-yl)-1-(2-methylbenzyl)pyrrolidin-2-one] has a Ki of 81 nM. For O=C1[C@@H](N2CCC(c3ccc(O)cc3)CC2)CCN1Cc1ccc(Cl)cc1 [Example 18a, (S)-1-(4-Chlorobenzyl)-3-(4-(4-hydroxyphenyl)piperidin-1-yl)pyrrolidin-2-one], the Ki was 170 nM. In the case of Cc1cccc(CN2CCC(N3CC[C@@H](c4ccc(O)cc4)[C@H](F)C3)C2=O)c1 (stereo partly drawn) [Example 60, 3-((3S,4S)-3-Fluoro-4-(4-hydroxyphenyl)piperidin-1-yl)-1-(3-methylbenzyl)pyrrolidin-2-one], the Ki is reported as 110 nM. O=C1[C@H](N2CCC(c3ccc(O)cc3)C(F)(F)C2)CCN1c1ccc(OC(F)F)c(Cl)c1 (stereo partly drawn) [Example 101, P-2, (3R)-1-(3-Chloro-4-(difluoromethoxy)phenyl)-3-(3,3-difluoro-4-(4-hydroxyphenyl)-piperidin-1-yl)pyrrolidin-2-one] gave a Ki of 11 nM. With Cc1ccc(CN2CC[C@H](N3CC(c4ccc(O)cc4)C3)C2=O)cc1 [Example 28a, (S)-3-(3-(4-Hydroxyphenyl)azetidin-1-yl)-1-(4-methylbenzyl)pyrrolidin-2-one] the Ki was 420 nM.
